# Legend:
# [1] = Lutein distribution in human cadaveric eyes after corneo-scleral iontophoresis, two-photon microscopy; assay type: in vitro ADME; details: 2.5 mA for 5 min cornea/sclera, 80 min rest
# Method: (§1) A typical iontophoretic setting is made of two components: ocular applicator and a return electrode both connected to a generator. In this experiment, the ocular applicator comprised 2 electrodes to address independently corneal and scleral tissues. The ocular applicator (OPIA Technologies SAS, Paris, France) is made of polyurethane resin and comprises 2 reservoirs: central circular reservoir (diameter 8 mm, height 4.5 mm, volume 1 ml) and a stainless steel electrode, applied on the cornea surrounded by an annular reservoir (inner diameter 12.5 mm, outer diameter 18 mm height 4.5 mm, volume 1 ml) and a stainless steel electrode, applied on the sclera (pars plana region around the limbus). Each stainless steel electrode connected with a lead to a different constant current generator (anode —positive electrode). The return electrodes were assigned to each generator and respectively attached to the optic nerve (for the corneal electrode) and the equator region of the sclera (for scleral electrode), closing each electrical circuit independently.
# Cadaveric eyes. Six human cadaveric eye globes, from different healthy donors, were obtained from the Veneto Eye Bank Foundation (Venezia Zelarino, Italy). […]
# (§2) Preparation of the eyes. […] After pre-conditioning, the central corneal thickness (CCT) was measured, using an ultrasound corneal pachymeter (Pachmate, DGH, Exton, USA). […]
# [2] = Resonance Raman spectroscopy of ocular tissues of human cadaveric eyes after iontophoresis; assay type: in vitro ADME
# Method: as §1
# Cadaveric eyes. Six human cadaveric eye globes, from different healthy donors, were obtained from the Veneto Eye Bank Foundation (Venezia Zelarino, Italy). The human eyes were used in compliance with the guidelines of the Declaration of Helsinki for research involving the use of human tissue and were explanted between 3 and 16 hours after death and immediately preserved at 4° C. in corneal storage medium enriched with 6% dextran. The mean donor age was 63.6±5.9 years. The mean endothelial cell density was 2125±389 cells/mm^2. Each eye globe, submerged in dextran enriched solution, was shipped to the laboratory within 5 days. Four eye globes underwent corneo-scleral iontophoresis to deliver 0.1% lutein ophthalmic solution into the retinal tissue. Two eye globes were used as control: iontophoresis was performed without presence of the formulation.
# as §2
structure (smiles),measurement,setting,value
CC1=C[C@H](O)CC(C)(C)[C@H]1/C=C/C(C)=C/C=C/C(C)=C/C=C/C=C(C)/C=C/C=C(C)/C=C/C1=C(C)C[C@@H](O)CC1(C)C [lutein],"Lutein distribution within the retina, outer versus inner part",[1],more lutein in the outer part close to the photoreceptors than in the ganglion cells
same,Lutein in the retina,[1],abundant in the retina
same,"Raman peak at 1530 cm−1, treated eye versus control eye",[2]; inner sclera,7 times
same,"Raman peak at 1530 cm−1, treated eye versus controls",[2]; macula,1.3 times
same,"Raman peak at 1530 cm−1, treated eye versus control eye",[2]; retinal mid-periphery,1.7 times
